Source: patent US4906638A (priority 1987, dated 1990)
Entries after “also recorded” stand apart in the source; their conditions may differ. Read-outs that look alike come from different tables or passages of the source.

Assays:
[1] = tested on: maximal electroshock seizures (tonic hindlimb extension); experiment: maximal electroshock (MES) procedure for mice, transauricular (Example I); assay type: in vivo; conditions: for mice protected: 500 mg/kg i.p.
Protocol: For combination studies two separate injections were administered. […] The absence of tonic hindlimb extension was taken as evidence for seizure protection.

[2] = observed signs of toxicity in mice after ethosuximide; assay type: in vivo; conditions: 500 mg/kg i.p.
[3] = tested on: [^3 H]dextromethorphan receptor; conditions: cited from earlier work; for effect on [^3 H]dextromethorphan binding / binding to the dextromethorphan site (in words): central nervous system site; for IC50: read-out: IC50, inhibition of [^3 H]dextromethorphan binding, in vitro
[4] = rats, dogs and humans; cited from earlier work
[5] = rotorod-ataxia toxicity test (CNS side effects); conditions: mouse, in vivo
From the text: (§1) Mice that were unable to maintain equilibrium for one continuous minute, given 3 opportunities were scored as ataxic.

[6] = tested on: CNS side effects (rotorod ataxia); experiment: rotorod-ataxia toxicity test (CNS side effects); conditions: maximal therapeutic dose of dextromethorphan
From the text: as §1

[7] = tested on: N-methyl-D-aspartate-induced seizures; experiment: N-methyl-D-aspartate (NMDA) induced convulsions in mice; assay type: in vivo, mice (male CF-1); conditions: for % Protected: 30 min before NMDA 250 mg/kg; for protection against N-methyl-D-asparate-induced seizures (in words): i.p.
Protocol: When mice (male CF-1; 25-30 g) are administered NMDA (250 mg/kg; IP) animals typically respond with seizure activity consisting of an initial staring, followed in rapid order by hindlimb scratching, increased locomotor activity, rearing behavior, clonic seizures, tonic extension and death.
All drugs were dissolved in saline (0.9%; w/v) and delivered by intraperitoneal injection in a volume of 1.0% (w/v) of body weight.

[8] = tested on: maximal electroshock induced seizures; experiment: maximal electroshock (MES) induced seizures in mice (Example II); assay type: in vivo, mice (male CF-1); conditions: for % Protected: 30 min before testing
Protocol: All drugs were dissolved in saline (0.9%; w/v) and delivered intraperitoneally in a volume equal to 1 percent of body weight. Animals failing to show tonic hindlimb extension were scored as protected from MES-induced convulsions.

[9] = tested on: [^3 H]TCP-labeled-NMDA-linked receptor; conditions: cited from earlier work
[10] = tested on: transauricular maximal electroshock seizure (MES); conditions: cited from earlier work
[11] = tested on: calcium-induced spasms in smooth muscle; conditions: cited from earlier work
[12] = following 20 to 60 mg dextromethorphan p.o. in humans; cited from earlier work

CCC1(C)CC(=O)NC1=O (centres unmarked) [Ethosuximide]
mice protected ([1]; at one half hour): one in five
mice protected ([1]; one hour after injection): none
signs of sedation, ataxia and gross toxicity [2]: all mice injected showed signs of sedation, ataxia and gross toxicity

CC(CN1c2ccccc2Sc2ccccc21)N(C)C (centres unmarked) [promethazine]
effect on [^3 H]dextromethorphan binding / binding to the dextromethorphan site (in words) [3]: bind to the same central nervous system site

CCN(CC)CCOCCOC(=O)C1(c2ccccc2)CCCC1 [carbetapentane]
effect on [^3 H]dextromethorphan binding / binding to the dextromethorphan site (in words) [3]: bind to the same central nervous system site
IC50 [3]: 1 to 75 nM

CN1CC[C@@]23CCCC[C@@H]2[C@@H]1Cc1ccc(O)cc13 [dextrorphan]
ratio of dextrorphan to dextromethorphan in plasma and urine [4]: exceeds 100 to 1

CC(CN(C)C)CN1c2ccccc2Sc2ccccc21 (centres unmarked) [trimeprazine]
effect on [^3 H]dextromethorphan binding / binding to the dextromethorphan site (in words) [3]: bind to the same central nervous system site

CN1CCN(CCCN2c3ccccc3Sc3ccc(Cl)cc32)CC1 [prochlorperazine]
effect on [^3 H]dextromethorphan binding / binding to the dextromethorphan site (in words) [3]: bind to the same central nervous system site

OCCN1CCN(CC/C=C2/c3ccccc3Sc3ccc(C(F)(F)F)cc32)CC1 [flupenthinol]
effect on [^3 H]dextromethorphan binding / binding to the dextromethorphan site (in words) [3]: bind to the same central nervous system site

CN1[C@@H]2CC[C@H]1C[C@@H](OC(c1ccccc1)c1ccccc1)C2 [benztropine]
effect on [^3 H]dextromethorphan binding / binding to the dextromethorphan site (in words) [3]: bind to the same central nervous system site

COc1ccc2c(c1OC)C(=O)O[C@@H]2[C@H]1c2c(cc3c(c2OC)OCO3)CCN1C [noscapine]
effect on [^3 H]dextromethorphan binding / binding to the dextromethorphan site (in words) [3]: markedly increased
effect on [^3 H]dextromethorphan binding / binding to the dextromethorphan site (in words) ([3]; listed as roscapine): bind to the same central nervous system site

CN1CCN(CCCN2c3ccccc3Sc3ccc(C(F)(F)F)cc32)CC1 [trifluorperazine]
effect on [^3 H]dextromethorphan binding / binding to the dextromethorphan site (in words) [3]: bind to the same central nervous system site

OCCN1CCN(CCCN2c3ccccc3C=Cc3ccccc32)CC1 [opipramol]
effect on [^3 H]dextromethorphan binding / binding to the dextromethorphan site (in words) [3]: bind to the same central nervous system site

C(=C\c1ccccc1)/CN1CCN(C(c2ccccc2)c2ccccc2)CC1 [cinnarizine]
effect on [^3 H]dextromethorphan binding / binding to the dextromethorphan site (in words) [3]: bind to the same central nervous system site

CN1C(=O)CN=C(c2ccccc2)c2cc(Cl)ccc21 [diazepam]
effect on [^3 H]dextromethorphan binding / binding to the dextromethorphan site (in words) [3]: do not inhibit or enhance binding

c1ccc(C2(c3ccccc3)OC[C@H]([C@@H]3CCCCN3)O2)cc1 [dexoxadrol]
effect on [^3 H]dextromethorphan binding / binding to the dextromethorphan site (in words) [3]: do not inhibit or enhance binding

CCC1(c2ccccc2)C(=O)NC(=O)NC1=O [phenobarbital]
effect on [^3 H]dextromethorphan binding / binding to the dextromethorphan site (in words) [3]: do not inhibit or enhance binding

OCCN1CCN(CCCN2c3ccccc3Sc3ccc(C(F)(F)F)cc32)CC1 [fluphenazine]
effect on [^3 H]dextromethorphan binding / binding to the dextromethorphan site (in words) [3]: bind to the same central nervous system site

CN(C)CCCN1c2ccccc2Sc2ccc(Cl)cc21 [chlorpromazine]
effect on [^3 H]dextromethorphan binding / binding to the dextromethorphan site (in words) [3]: bind to the same central nervous system site

NC(=O)N1c2ccccc2C=Cc2ccccc21 [carbamazepine, 5-H-dibenzepin-(5)-carboxamide]
% Mice Protected ([1]; CBM 1 mg/kg alone, 15 min before MES): 0%
% Mice Protected ([1]; CBM 3 mg/kg alone, 15 min before MES): 0%
% Mice Protected ([1]; CBM 6 mg/kg alone, 15 min before MES): 25%
% Mice Protected ([1]; CBM 8 mg/kg alone, 15 min before MES): 50%
% Mice Protected ([1]; CBM 9 mg/kg alone, 15 min before MES): 75%
% Mice Protected ([1]; CBM 12 mg/kg alone, 15 min before MES): 100%
ED50 ([1]; CBM alone, 15 min): 7.2 mg/kg
TD50 at […] [5]: 44.8 mg/kg
effect on [^3 H]dextromethorphan binding / binding to the dextromethorphan site (in words) [3]: did not inhibit or enhance; also recorded: do not inhibit or enhance binding

Nc1ccccc1 [phenylamine]
effect on [^3 H]dextromethorphan binding / binding to the dextromethorphan site (in words) [3]: bind to the same central nervous system site

COc1ccc2c(c1)[C@]13CCCC[C@@H]1[C@H](C2)N(C)CC3 [dextromethorphan]
% Mice Protected ([1]; 0 mg/kg CBM + 10 mg/kg DM (DM alone)): 0%
% Mice Protected ([1]; 0 mg/kg CBM + 20 mg/kg DM (DM alone)): 8%
protection when administered alone (in words) ([1]; 10 and 20 mg/kg, with 0 CBM): little or no protection
% Protected ([1]; DM 5 mg/kg i.p., one-half hour before MES): 0%
% Protected ([1]; DM 10 mg/kg i.p., one-half hour before MES): 0%
% Protected ([1]; DM 20 mg/kg i.p., one-half hour before MES): 8%
% Protected ([1]; DM 25 mg/kg i.p., one-half hour before MES): 25%
% Protected ([1]; DM 30 mg/kg i.p., one-half hour before MES): 37.5%
% Protected ([1]; DM 35 mg/kg i.p., one-half hour before MES): 75%
% Protected ([1]; DM 45 mg/kg i.p., one-half hour before MES): 87.5%
% Protected ([1]; DM 55 mg/kg i.p., one-half hour before MES): 100%
ED50 ([1]; Mus musculus, ip, 0.5 h, DM alone, i.p., one-half hour before MES, range in parentheses, read-out: ED50): 29.2 mg/kg
anticonvulsant activity (in words) ([1]; alone, i.p., one-half hour before MES): dose dependent anticonvulsant activity
increment in carbamazepine's CNS side effects (in words) [6]: little increment in carbamazepine's CNS side effects
% Protected ([7]; DM 10 mg/kg i.p. alone): 33%
protection against N-methyl-D-asparate-induced seizures (in words) [7]: afforded protection
% Protected ([8]; DM 6.6 mg/kg i.p. alone): 0%
% Protected ([8]; DM 10 mg/kg i.p. alone): 16.6%
% Protected ([8]; DM 27 mg/kg i.p. alone): 50%
% Protected ([8]; DM 30 mg/kg i.p. alone): 66.6%
effect of dextromethorphan on anticonvulsant activity of CPP (in words) ([8]; low vs higher doses of dextromethorphan combined with CPP): readily apparent only when low doses of dextromethorphan were administered in combination with anticonvulsant doses of CPP; also recorded: higher doses of dextromethorphan were either ineffective to increase the anticonvulsant activity of CPP or, partially attenuated the activity
Kd ([3]; read-out: Kd, high affinity binding of [^3 H]dextromethorphan, homogenates of guinea pig, rat and mouse lower brainstem): < 20 nM
binding at phencyclidine-labeled/N-methyl-D-asparate linked receptors (in words) [9]: bind at phencyclidine-labeled/N-methyl-D-asparate linked receptors
protection against transauricular maximal electroshock seizure (in words) ([10]; 30 mg/kg, by itself): provide protection against transauricular maximal electroshock seizure (MES)
protection time against MES compared with dilantin (in words) ([10]; standard testing conditions): somewhat longer protection time against MES than that exhibited by dilantin
block of calcium-induced spasms in smooth muscle (in words) [11]: block calcium-induced spasms in smooth muscle
absolute plasma levels [12]: five

O=C(OCCOCCN1CCCCC1)N1c2ccccc2Sc2cccnc21 [pipazethate]
effect on [^3 H]dextromethorphan binding / binding to the dextromethorphan site (in words) [3]: bind to the same central nervous system site

c1ccc(C2(N3CCCCC3)CCCCC2)cc1 [phencyclidine]
effect on [^3 H]dextromethorphan binding / binding to the dextromethorphan site (in words) [3]: do not inhibit or enhance binding

OCCN1CCN(CCCN2c3ccccc3Sc3ccc(Cl)cc32)CC1 [perphenazine]
effect on [^3 H]dextromethorphan binding / binding to the dextromethorphan site (in words) [3]: bind to the same central nervous system site

CCN(CC)CCOC(=O)C1(c2ccccc2)CCCC1 [caramiphen]
effect on [^3 H]dextromethorphan binding / binding to the dextromethorphan site (in words) [3]: bind to the same central nervous system site
IC50 [3]: 1 to 75 nM

CN(C)CCOCCOC(=O)N1c2ccccc2Sc2ccccc21 [dimethoxanate]
effect on [^3 H]dextromethorphan binding / binding to the dextromethorphan site (in words) [3]: bind to the same central nervous system site
IC50 [3]: 1 to 75 nM

O=C(O)C1CN(CCCP(=O)(O)O)CCN1 (centres unmarked) [CPP, 3-(2-carboxypiperazin-4-yl)propyl-1-phosphono acid]
% Protected ([7]; CPP 1.5 mg/kg i.p. alone): 12.5%
% Protected ([7]; CPP 2.0 mg/kg i.p. alone): 37.5%
protection against N-methyl-D-asparate-induced seizures (in words) [7]: afforded protection
% Protected ([8]; CPP 5 mg/kg i.p. alone): 25%
% Protected ([8]; CPP 10 mg/kg i.p. alone): 60%

CNC1(c2ccccc2Cl)CCCCC1=O (centres unmarked) [ketamine]
effect on [^3 H]dextromethorphan binding / binding to the dextromethorphan site (in words) [3]: do not inhibit or enhance binding
